From article PMC7312375, “A Novel, Pan-PDE Inhibitor Exerts Anti-Fibrotic Effects in Human Lung Fibroblasts via Inhibition of TGF-β Signaling and Activation of cAMP/PKA Signaling” (International Journal of Molecular Sciences, 2020)

How the values were obtained:
[1] = test system: MRC-5 cells; experiment: cAMP ELISA; format: cell-based, human; settings: 10 µM, 30 min
Protocol: MRC-5 cells were seeded in standard culture medium for 24 h and then serum-starved for 2 h in HBSS. The study compounds (10 µM) were added to the MRC-5 cultures and after 30 min of incubation, the intracellular cAMP level in cell lysates was measured using a colorimetric cAMP ELISA Kit according to the manufacturer’s protocol (Cell Biolabs, INC., San Diego, CA, USA). Obtained results were normalized to total protein content in each sample. The experiments were run two times in duplicates.

[2] = biological target: T1, PDE3B (Homo sapiens, UniProt Q13370); experiment: PDE-Glo assay, human recombinant PDE3B; format: biochemical; settings: read-out: PDE-IC50 3B
T1 construct: purchased SignalChem
Protocol: (§1) Inhibitory activities of the investigated compounds against various subtypes of human recombinant (hr)PDEs, namely PDE1A, PDE1B, PDE1C, PDE3A, PDE3B, PDE4A, PDE4B, PDE4D, PDE7A, and PDE8A were assessed using a PDE-Glo^TM Assay Kit (Promega, Madison, WI, USA) according to the protocol provided by the manufacturer. Briefly, appropriate amounts of each enzyme (SignalChem, Richmond, B.C., Canada), diluted with PDE-Glo reaction buffer, were distributed on a 384-well plate (Thermo Scientific, Waltham, MA, USA). The investigated compounds were dissolved in DMSO, diluted with the same vehicle, and mixed with the reaction buffer at a v/v ratio of 1:5. Thereafter, 1 µL of these mixtures and 2.5 µL of the cAMP solution as a substrate were added. The final cAMP concentration was 0.05 µM. The samples were incubated for 10 min at 30 °C. Then, 2.5 µL of termination buffer and 2.5 µL of PDE-Glo detection solution were added to each well and incubated for 20 min. Finally, 10 µL of PDE-Glo kinase reagent was added, and luminescence was measured using the POLARstar Omega plate reader (BMG LABTECH, Ortenberg, Germany). Each sample was prepared in quadruplicate. The relative activities (A, %) of all samples were calculated from the following equation: A = [(LUsample − LUblank)/(LUcontrol − LUblank)]·100%; where LUcontrol is the luminescence of a control sample in the absence of a PDE inhibitor, LUsample is a luminescence of an investigated sample in the presence of an inhibitor, and LUblank is a luminescence of a sample in the absence of enzyme (activity = 0). IC50 values were estimated using non-linear regression.

[3] = test system: TGF-β1-induced MRC-5 cells; experiment: Immunofluorescence, nuclear localization of p-CREB; format: cell-based, human; settings: 10 µM
Protocol: (§2) For immunocytochemical labeling, MRC-5 cells were seeded on glass coverslips. Study compounds (10 µM) were added 1 h before TGF-β1 treatment, and analysis was performed after 1 h (p-Smad-2 and p-CREB detection) or 48 h (α-SMA detection) of incubation. Cells were fixed in methanol or 4% formaldehyde solution, permeabilized in 0.2% or 0.1% Triton X-100 solution (for p-Smad-2 and p-CREB or α-SMA, respectively). After incubation in blocking solution the following primary antibodies: rabbit polyclonal, anti-phospho-Smad-2 (Ser465, Ser467) antibody (#44-244G, Thermo Fisher Scientific, Waltham, MA, USA); rabbit polyclonal, anti-phospho-CREB1 (Ser133) antibody (#orb213775, Biorbyt, Cambridge, United Kingdom); mouse monoclonal, anti-α-SMA antibody (#MA5-11547, Thermo Fisher Scientific, Waltham, MA, USA) and secondary antibodies: goat anti-rabbit Alexa Fluor 546 conjugated antibody and goat anti-mouse Alexa Fluor 488 conjugated antibody (#A-11010 and #A-11001, respectively, Invitrogen, Carlsbad, CA, USA) were used. Nuclei were counterstained with Hoechst 33342 dye (Thermo Fisher Scientific, Waltham, MA, USA). Slides were mounted in ProLong™ Glass Antifade Mountant (Invitrogen, Carlsbad, CA, USA) and analyzed using Leica DMiL LED Fluo microscope (for α-SMA and p-CREB visualization, 40× objective) or Leica DMi8 with Thunder Imaging System (for p-Smad-2 visualization, 40× objective), all equipped with LAS-X Software (Leica Microsystems GmbH, Wetzlar, Germany). Experiments were run four times using five randomly selected fields of view, at the same fluorescent time exposure and in a blind-folded manner.

[4] = biological target: T2, PDE1C (Homo sapiens, UniProt Q14123); experiment: PDE-Glo assay, human recombinant PDE1C; format: biochemical; settings: read-out: PDE-IC50 1C
T2 construct: purchased SignalChem
Protocol: as §1

[5] = test system: TGF-β1-induced MRC-5 cells; experiment: Protein kinase A activity; format: cell-based, human; settings: 10 µM 30 min, then TGF-β1 30 min
Protocol: Protein Kinase A (PKA) activity in MRC-5 cells was determined using a PKA Colorimetric Activity Kit (Invitrogen, Carlsbad, CA, USA) according to the manufacturer’s protocol. MRC-5 cells were seeded in standard culture medium, and after 48 h they were serum-starved for 2 h in HBSS, followed by the addition of study compounds (10 µM) and incubation for 30 min. Finally, TGF-β1 was administered, and the samples were incubated for an additional 30 min. Whole cell lysates were used in the assay. The amount of PKA was normalized to the total protein content in each sample. The experiments were run two times in duplicates.

[6] = test system: TGF-β1-induced MRC-5 cells; experiment: Immunofluorescence count of α-SMA positive myofibroblasts; format: cell-based, human; settings: 10 µM, 48 h TGF-β1 5 ng/mL
Protocol: as §2

T1 sequence (Q13370 whole entry): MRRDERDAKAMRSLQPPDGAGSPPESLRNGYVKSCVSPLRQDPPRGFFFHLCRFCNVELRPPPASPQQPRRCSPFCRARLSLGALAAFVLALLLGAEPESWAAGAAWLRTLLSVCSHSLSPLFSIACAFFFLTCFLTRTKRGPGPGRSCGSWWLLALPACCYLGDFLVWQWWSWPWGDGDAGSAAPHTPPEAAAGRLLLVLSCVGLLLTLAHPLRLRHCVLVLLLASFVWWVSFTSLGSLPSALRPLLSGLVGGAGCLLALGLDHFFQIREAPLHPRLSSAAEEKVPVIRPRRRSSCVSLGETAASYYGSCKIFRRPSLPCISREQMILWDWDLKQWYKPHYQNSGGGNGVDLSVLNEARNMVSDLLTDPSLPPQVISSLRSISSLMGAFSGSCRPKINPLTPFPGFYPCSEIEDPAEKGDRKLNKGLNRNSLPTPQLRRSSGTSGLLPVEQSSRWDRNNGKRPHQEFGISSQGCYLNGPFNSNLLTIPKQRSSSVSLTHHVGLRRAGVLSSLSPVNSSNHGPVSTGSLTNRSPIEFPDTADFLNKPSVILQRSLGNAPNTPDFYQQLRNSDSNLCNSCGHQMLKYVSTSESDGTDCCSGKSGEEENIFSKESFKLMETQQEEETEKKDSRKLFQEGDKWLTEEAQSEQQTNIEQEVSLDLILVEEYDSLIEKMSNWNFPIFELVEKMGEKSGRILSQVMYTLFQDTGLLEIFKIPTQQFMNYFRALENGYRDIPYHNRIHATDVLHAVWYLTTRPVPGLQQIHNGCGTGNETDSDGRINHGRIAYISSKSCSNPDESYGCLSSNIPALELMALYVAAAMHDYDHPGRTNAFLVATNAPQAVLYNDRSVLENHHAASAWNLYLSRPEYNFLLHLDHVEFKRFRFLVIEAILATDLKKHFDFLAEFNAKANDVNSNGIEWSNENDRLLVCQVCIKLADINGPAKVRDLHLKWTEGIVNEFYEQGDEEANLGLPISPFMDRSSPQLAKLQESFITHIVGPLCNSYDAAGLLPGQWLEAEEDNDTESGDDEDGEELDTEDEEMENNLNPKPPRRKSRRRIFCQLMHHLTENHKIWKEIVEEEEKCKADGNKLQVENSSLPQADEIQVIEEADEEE
T2 sequence (Q14123 whole entry): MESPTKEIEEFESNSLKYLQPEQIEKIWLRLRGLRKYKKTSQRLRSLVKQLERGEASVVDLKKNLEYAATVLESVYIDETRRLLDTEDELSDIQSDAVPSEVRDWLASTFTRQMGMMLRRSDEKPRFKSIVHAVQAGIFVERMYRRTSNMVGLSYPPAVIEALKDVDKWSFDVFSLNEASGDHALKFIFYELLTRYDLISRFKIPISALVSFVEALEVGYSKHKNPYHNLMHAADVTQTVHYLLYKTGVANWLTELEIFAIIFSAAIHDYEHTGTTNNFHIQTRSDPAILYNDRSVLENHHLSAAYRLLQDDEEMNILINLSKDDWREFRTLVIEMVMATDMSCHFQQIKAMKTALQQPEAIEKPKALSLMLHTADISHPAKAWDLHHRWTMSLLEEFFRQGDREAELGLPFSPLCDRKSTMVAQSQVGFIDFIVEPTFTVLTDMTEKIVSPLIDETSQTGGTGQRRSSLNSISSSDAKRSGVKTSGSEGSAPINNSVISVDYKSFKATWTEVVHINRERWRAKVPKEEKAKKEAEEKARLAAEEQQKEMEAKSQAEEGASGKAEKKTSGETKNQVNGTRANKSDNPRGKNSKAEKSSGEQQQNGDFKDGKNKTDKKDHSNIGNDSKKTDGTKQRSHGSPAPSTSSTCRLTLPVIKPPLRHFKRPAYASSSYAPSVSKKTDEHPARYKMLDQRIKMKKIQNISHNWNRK

Row | IC50 [2] | IC50 [4] | SMILES | increase in cAMP level compared to control [1] | elevation of fraction of MRC-5 cells with nuclear p-CREB localization [3] | Protein kinase A activity in TGF-β1-induced fibroblasts [5] | number of myofibroblasts (MRC-5 with α-SMA-positive stress fibers); fibroblast to myofibroblast transition [6] | cAMP level ([1]; control 508.87)
1 | 0.31 µM | 12.5 µM | CC(C)Cn1c(=O)n(C)c(=O)c2[nH]cnc21 [IBMX, 3-isobutyl-1-methyl-3,7-dihydro-1H-purine-2,6-dione, reference compound] | 2.53 fold | only a slight increase | slightly lower |  | 
2 | 157 µM | 172 µM | COc1nc2c(c(=O)n(C)c(=O)n2C)n1CC(=O)Nc1ccc(C(C)(C)C)cc1 [Compound 869, N-(4-(tert-butyl)phenyl)-2-(8-methoxy-1,3-dimethyl-2,6-dioxo-1,2,3,6-tetrahydro-7H-purin-7-yl)acetamide] |  | only a slight increase | no significant change | decreased | 
3 | 0.42 µM | 89.2 µM | Cn1c(=O)c2c(nc(NCc3ccco3)n2CCCC(=O)NN=Cc2ccc(O)cc2O)n(C)c1=O [Compound 832, N′-(2,4-dihydroxybenzylidene)-4-(8-((furan-2-ylmethyl)amino)-1,3-dimethyl-2,6-dioxo-1,2,3,6-tetrahydro-7H-purin-7-yl)butanehydrazide] | 2.16 fold | only a slight increase | slightly lower | decreased | 

Row | SMILES | IC50 [2] | IC50 [4] | increase in cAMP level compared to control [1] | elevation of fraction of MRC-5 cells with nuclear p-CREB localization [3] | Protein kinase A activity in TGF-β1-induced fibroblasts [5] | number of myofibroblasts (MRC-5 with α-SMA-positive stress fibers); fibroblast to myofibroblast transition [6] | cAMP level ([1]; control 508.87)
4 | CCCCOc1nc2c(c(=O)n(C)c(=O)n2C)n1CCCC(=O)Nc1cc(C(C)(C)C)ccc1O [Compound 145, 4-(8-butoxy-1,3-dimethyl-2,6-dioxo-1,2,3,6-tetrahydro-7H-purin-7-yl)-N-(5-(tert-butyl)-2-hydroxyphenyl)butanamide] | 2.05 µM | 48.5 µM | 4.5 fold | 70% | slightly lower | the most significant decrease | 2262.07 fmol/mL/mg of protein
